Paper PMC9962512, “Synthesis and Anti-Angiogenic Activity of Novel c(RGDyK) Peptide-Based JH-VII-139-1 Conjugates” (Pharmaceutics, 2023)
Read-outs that look alike come from different tables or passages of the source.

What was measured:
human SRPK1 = target: T1, human SRPK1 (Homo sapiens, UniProt Q96SB4); experiment: In vitro kinase assay (GST-SRPK1, GST-LBRNt(62-92) substrate, radioactive); type: biochemical; details: 25 μM ATP; mean ± SD of three experiments; read-out: IC50 (nΜ) for SRPK1
T1 construct: made in house; host or cells: bacteria (pGEX-2T vector)
Protocol: The pGEX-2T bacterial expression vector (Amersham Biosciences GmbH, Freiburg, Germany) was used to construct plasmids that encode human SRPK1 and a fragment of the N-terminal domain of turkey LBR comprising amino acids 62–92 (LBRNt(62–92)). The GST-fusion proteins were produced in bacteria and purified using glutathione-Sepharose (Amersham Biosciences) according to the manufacturer’s instructions. Kinase assays were carried out in a total volume of 25 μL containing 0.5 μg GST-SRPK1, 1.5 μg GST-LBRNt(62–92) as substrate, 12 mM Hepes pH 7.5, 10 mM MgCl2, 25 μM ATP, and increasing concentrations of the inhibitors as indicated. In all assays, the final concentration of dimethyl sulfoxide (DMSO) was adjusted to 4%. Phosphorylated GST-LBRNt(62–92) was detected by autoradiography using Super RX (Fuji medical X-ray film,(Fujifilm Holdings Corporation, Tokyo, Japan)). Incorporated radioactivity was quantified by excising the radioactive bands from the SDS-PAGE gel and scintillation counting.

[1] = Stability in human plasma; type: in vitro ADME; details: for half-life at 495 µg/mL: human, read-out: half-life t1/2
Protocol: First, 250 μg of (JH-VII-139-1)-c(RGDyK)-based conjugates were diluted in 5 μL DMSO and the mixture was added to 0.5 mL of human plasma. The mixtures were incubated at 37 °C. 50 μL of aliquot was removed at predetermined time points and quenched with 150 μL ice-cold acetonitrile (+0.1% formic acid). Then, the mixture was centrifuged at 10,000 rpm for 10 min. Then, 50 μL of supernatant was added to 50 μL of ultrapure water (+0.1% formic acid) and analyzed by LC-MS. Results are presented as the mean ± SD of three independent experiments.

HeLa cells = experiment: cells; type: cell-based; details: 48 h; for TGI: total growth inhibition
Protocol: (§1) HeLa, MCF7, MDA-MB-231 and K562 cancer cell lines were provided by ATCC (American Type Culture Collection). Cells were incubated at 37 °C with 5% CO2. HeLa, MCF7 and MDA-MB-231 cells were maintained in DMEM, while K562 cells were maintained in RPMI medium, both supplemented with 10% (v/v) fetal bovine serum (FBS) and antibiotics/antimycotics.
(§2) HeLa, MCF7, MDA-MB-231 and K562 cells were seeded in 96-well plates (3 × 10^3 cells per well) and grown in medium supplemented with 10% FBS as monolayers at 37 °C in a 5% CO2 incubator. One day after seeding, cells were exposed to increasing concentrations of the inhibitors for 48 h. The viability of the cells was estimated by an (3-(4,5-imethylthiazol-2-yl)-2,5-diphenyltetrazolium bromide (MTT) metabolic assay as described previously, and the percentage growth inhibition (GI50, TGI, IC50) was calculated according to National Cancer Institute recommendations as referred to Leonidis et al.. Values shown represent the means ± SE of three independent experiments.

MDA-MB-231 cells = experiment: cells; type: cell-based; details: for TGI: total growth inhibition
Protocol: as §1, §2

K562 cells = experiment: cells; type: cell-based; details: for TGI: total growth inhibition
Protocol: as §1, §2

physchem [2] = details: buffer, pH 7.4
[3] = Stability in Dulbecco's Modified Eagle Medium (+10% FBS); type: in vitro ADME; details: for half-life at 396 µg/mL: DMEM + 10% FBS, read-out: half-life t1/2
Protocol: Conjugates geo75, geo77, geo85 and geo107 (200 μg in 5 μL DMSO) were diluted in 0.5 mL DMEM (+10% fetal bovine serum) mixture and incubated at 37 °C. At predetermined time intervals, 50 μL of the mixture was removed and quenched with 150 μL water/acetonitrile/formic acid solution (100/100/0.1 volume ratio) and the sample was analyzed by LC-MS. Three independent experiments were carried out and the results are presented as the mean ± standard deviation.

physchem [4] = details: buffer, pH 5.2
[5] = buffer, pH 7.4
[6] = MTT assay, summary over the cell panel; type: cell-based
Protocol: as §1, §2

α5β1 integrins = system: α5β1 integrins; parameters: method as in PMID 28074920; details: α5β1 ref 25; cited from earlier work
MCF7 cells = experiment: cells; type: cell-based; details: for TGI: total growth inhibition
Protocol: as §1, §2

[7] = system: zebrafish Tg(kdrl:gfp) embryos; experiment: Zebrafish angiogenesis assay, intersegmental vessels (ISVs); type: in vivo; details: 10 μM, added 24 hpf, imaged 72 hpf
Protocol: The Tg(kdrl:gfp)^s843 [38] was used to measure angiogenesis. Zebrafish breeding was carried out according to the European Directive 2010/63 and the Recommended Guidelines for Zebrafish Husbandry Conditions.
Zebrafish Tg(kdrl:gfp)^s843 embryos were raised in E3 medium up to 24 hpf; then dechorinated and finally transferred to a 12-well plate (10 embryos per well). Each compound was dissolved in DMSO and then added in the wells at the following final concentrations: 10 μM JH-VII-139-1 and c(RGDyK), and 1.3 μM geo75, geo77, geo85, geo107. Treated embryos and control embryos (at the corresponding DMSO concentration) were kept at 28 °C and imaged at 72 hpf.
After anesthetizing embryos with 0.4% tricaine methanesulfonate (MS222), a fluorescent image was acquired using a Hamamatsu ORCA-Flash4.0LT digital camera. We used the total length of 8 intersegmental vessels (ISVs) per embryo and the width from each of the above ISVs was measured at three different points, i.e., the top, the middle, and the bottom point of each ISV, and then the average width was estimated. We measured the 8 ISVs that flank the end of the yolk extension. Length and widths were measured using the open-source software ImageJ 1.53a (http://imagej.nih.gov/ij (accessed on 30 May 2022)). A total of 30 embryos (4–7 per group) from independent experiments were measured. […]

[8] = system: HeLa, MCF-7, MDA-MB-231 and K562 cancer cells; experiment: MTT assay, summary over the cell panel; type: cell-based; details: HeLa, MCF-7, MDA-MB-231 and K562; 48 h; read-out: GI50 (cytostatic effect), range over compounds and cell lines
Protocol: as §1, §2

SRPK1 = system: SRPK1; parameters: method as in PMID 29478907; details: SRPK1 ref 27; cited from earlier work
[9] = system: angiogenesis in AMD animal model; parameters: method as in PMID 29478907; details: AMD animal model ref 27; cited from earlier work
[10] = DMEM with 10% fetal bovine serum, 37 °C

T1 sequence (Q96SB4 whole entry): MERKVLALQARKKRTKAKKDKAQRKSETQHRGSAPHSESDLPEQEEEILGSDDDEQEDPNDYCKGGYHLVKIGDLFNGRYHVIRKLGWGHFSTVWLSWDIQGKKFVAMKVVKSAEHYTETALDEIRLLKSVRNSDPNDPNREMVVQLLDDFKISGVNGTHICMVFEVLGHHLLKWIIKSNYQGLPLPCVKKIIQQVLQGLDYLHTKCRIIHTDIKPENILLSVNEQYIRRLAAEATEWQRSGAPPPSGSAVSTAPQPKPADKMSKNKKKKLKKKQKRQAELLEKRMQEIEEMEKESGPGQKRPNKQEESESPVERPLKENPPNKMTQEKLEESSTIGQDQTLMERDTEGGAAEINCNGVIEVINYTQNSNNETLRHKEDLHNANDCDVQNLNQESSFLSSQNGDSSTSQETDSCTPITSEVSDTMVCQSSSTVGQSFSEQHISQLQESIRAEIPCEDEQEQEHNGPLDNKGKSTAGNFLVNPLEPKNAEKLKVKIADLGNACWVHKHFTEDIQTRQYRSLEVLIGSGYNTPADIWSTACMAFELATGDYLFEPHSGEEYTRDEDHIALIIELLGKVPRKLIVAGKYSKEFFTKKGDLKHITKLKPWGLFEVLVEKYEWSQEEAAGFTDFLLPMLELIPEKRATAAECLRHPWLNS

| SMILES | IC50 (human SRPK1) | GI50 (HeLa cells) | IC50 (HeLa cells) | GI50 (MDA-MB-231 cells; 48 h) | IC50 (MDA-MB-231 cells; 48 h) | GI50 (K562 cells; 48 h) | IC50 (K562 cells; 48 h) | IC50 [6] | half-life at 495 µg/mL ([1]; 37 °C) | half-life (physchem [2]) | half-life at 396 µg/mL [3, 10] | half-life (physchem [4]) | half-life t1/2 [5] | TGI (HeLa cells; HeLa) | TGI (MDA-MB-231 cells; MDA-MB-231, 48 h) | GI50 (MCF7 cells; 48 h) | IC50 (MCF7 cells; 48 h) | TGI (MCF7 cells; MCF7, 48 h) | TGI (K562 cells; K562, 48 h) | inhibition of total width of ISVs [7] | other results |
| --- | --- | --- | --- | --- | --- | --- | --- | --- | --- | --- | --- | --- | --- | --- | --- | --- | --- | --- | --- | --- | --- |
| N=C(N)NCCC[C@@H]1NC(=O)[C@H](CCCCN)NC(=O)[C@@H](Cc2ccc(O)cc2)NC(=O)[C@H](CC(=O)O)NC(=O)CNC1=O [c(RGDyK)] |  | 79 ± 2.2 µM | […] | […] | […] | […] | […] |  |  |  |  |  |  | […] | […] | […] | […] | […] | […] | non-significant trend | IC50 (α5β1 integrins): 0.236 ± 0.045 µM |
| CCc1cc2c(cc1-c1ccn(C(=O)NCCOCCOCCNC(=O)N[C@@H](CCCCN)C(=O)NCCCC[C@@H]3NC(=O)[C@@H](Cc4ccc(O)cc4)NC(=O)[C@H](CC(=O)O)NC(=O)CNC(=O)[C@H](CCCNC(=N)N)NC3=O)n1)C(C)(C)c1[nH]c3cc(C#N)ccc3c1C2=O [geo107] |  |  |  |  |  |  |  |  | > 48 h | > 48 h | > 48 h | > 48 h |  |  |  |  |  |  |  |  | residual concentration (of initial concentration), lowest ([1]; up to 48 h): ≥ 80%; residual concentration (of initial concentration), lowest ([3]; cell media (DMEM), up to 48 h): ≥ 80% |
| CCc1cc2c(cc1-c1cc[nH]n1)C(C)(C)c1[nH]c3cc(C#N)ccc3c1C2=O [JH-VII-139-1, 9-Ethyl-6,6-dimethyl-11-oxo-8-(1H-pyrazol-3-yl)-6,11-dihydro-5H-benzo[b]carbazole-3-carbonitrile] | 0.032 ± 0.0005 µM |  |  |  |  |  |  |  |  |  |  |  |  | 19 ± 0.2 μΜ | 21 ± 0.4 μΜ |  |  | 19 ± 0.3 μΜ | 15 ± 0.5 μΜ | non-significant trend | half-life at 495 µg/mL ([1]; plasma, 37 °C): > 48 h; GI50 (HeLa cells; Homo sapiens, HeLa, 50% growth inhibition, read-out: GI50): 8 ± 0.2 µM; IC50 (HeLa cells; Homo sapiens, HeLa, cytotoxic effect, read-out: IC50): 14 ± 0.8 µM; GI50 (MDA-MB-231 cells; Homo sapiens, MDA-MB-231, 48 h, 50% growth inhibition, read-out: GI50): 11 ± 0.3 µM; IC50 (MDA-MB-231 cells; Homo sapiens, MDA-MB-231, 48 h, cytotoxic effect, read-out: IC50): 18 ± 0.5 µM; GI50 (MCF7 cells; Homo sapiens, MCF7, 48 h, 50% growth inhibition, read-out: GI50): 9 ± 0.2 µM; IC50 (MCF7 cells; Homo sapiens, MCF7, 48 h, cytotoxic effect, read-out: IC50): 8 ± 0.6 µM; GI50 (K562 cells; Homo sapiens, K562, 48 h, 50% growth inhibition, read-out: GI50): 8 ± 0.5 µM; IC50 (K562 cells; Homo sapiens, K562, 48 h, cytotoxic effect, read-out: IC50): 13 ± 0.3 µM; GI50 [8]: 4 to 12 µM; IC50 at 48 h ([6]; human, MDA-MB-231 and K562 cancer cells, HeLa, MCF-7, MDA-MB-231 and K562, 48 h, read-out: IC50 (cytotoxic effect), range over compounds and cell lines): 3 to 18 µM; IC50 (SRPK1): 0.0011 µM; half-life at 396 µg/mL ([3]; bovine, DMEM with 10% fetal bovine serum (cell-free), 37 °C): > 48 h; effect on angiogenesis [9]: blocks angiogenesis |

Now from value to compound, other results behind:

| IC50 (human SRPK1) | GI50 (HeLa cells) | IC50 (HeLa cells) | GI50 (MDA-MB-231 cells; 48 h) | IC50 (MDA-MB-231 cells; 48 h) | GI50 (K562 cells; 48 h) | IC50 (K562 cells; 48 h) | IC50 [6] | SMILES | half-life at 495 µg/mL ([1]; 37 °C) | half-life (physchem [2]) | half-life at 396 µg/mL [3, 10] | half-life (physchem [4]) | half-life t1/2 [5] | TGI (HeLa cells; HeLa) | TGI (MDA-MB-231 cells; MDA-MB-231, 48 h) | GI50 (MCF7 cells; 48 h) | IC50 (MCF7 cells; 48 h) | TGI (MCF7 cells; MCF7, 48 h) | TGI (K562 cells; K562, 48 h) | inhibition of total width of ISVs [7] | other results |
| --- | --- | --- | --- | --- | --- | --- | --- | --- | --- | --- | --- | --- | --- | --- | --- | --- | --- | --- | --- | --- | --- |
| 0.042 ± 0.0019 µM | > 100 µM | > 100 µM | > 100 µM | > 100 µM | > 100 µM | > 100 µM |  | CCc1cc2c(cc1-c1ccn(C(=O)NCCOCCOCCNC(=O)NCCCC[C@@H]3NC(=O)[C@@H](Cc4ccc(O)cc4)NC(=O)[C@H](CC(=O)O)NC(=O)CNC(=O)[C@H](CCCNC(=N)N)NC3=O)n1)C(C)(C)c1[nH]c3cc(C#N)ccc3c1C2=O [geo85] | > 48 h | > 48 h | > 48 h | > 48 h |  |  |  |  |  |  |  |  | metabolised at 24 h, 495 µg/mL ([1]; after 24 h, read-out: hydrolysis): 10%; hydrolysis ([3]; DMEM, after 24 h): 10% |
| 0.035 ± 0.0011 µM |  |  |  |  |  |  | 3 to 18 µM | CCc1cc2c(cc1-c1ccn(C(=O)OCCOCCOCCOC(=O)NCCCC[C@@H]3NC(=O)[C@@H](Cc4ccc(O)cc4)NC(=O)[C@H](CC(=O)O)NC(=O)CNC(=O)[C@H](CCCNC(=N)N)NC3=O)n1)C(C)(C)c1[nH]c3cc(C#N)ccc3c1C2=O [geo75] | 0.183 h |  |  | > 48 h | 24h 15min h min |  |  |  |  |  |  |  | time after which almost completely hydrolyzed ([1]; 37 °C): 1 h; time after which almost completely hydrolyzed ([3]; DMEM, 37 °C): 9 h |
| 0.03 ± 0.0017 µM | 5 ± 0.2 µM | 9 ± 0.2 µM | 8 ± 0.5 µM | 10 ± 0.3 µM | 12 ± 0.9 µM | 17 ± 0.5 µM | 3 to 18 µM | CCc1cc2c(cc1-c1ccn(C(=O)CCCC(=O)NCCCC[C@@H]3NC(=O)[C@@H](Cc4ccc(O)cc4)NC(=O)[C@H](CC(=O)O)NC(=O)CNC(=O)[C@H](CCCNC(=N)N)NC3=O)n1)C(C)(C)c1[nH]c3cc(C#N)ccc3c1C2=O [geo77] | 0.167 to 0.833 h |  |  |  | 1 h 44 min h min |  |  | 4 ± 0.4 µM | 3 ± 0.4 µM |  |  |  |  |
